# Data as given in ChEMBL document CHEMBL1155901, “Sialyl alpha(2-->3) lactose clusters using carbosilane dendrimer core scaffolds as influenza hemagglutinin blockers” (Bioorg Med Chem Lett, 2008).
# Active and inactive are the calls of the source. The calls are words filed in the database; no cut-off is given here.
# Experiments:
# Format in all cases: functional, organism-based
# Influenza A virus H3N2 [1] = assay: Inhibition of hemagglutinination in human influenza virus A/Aich/2/68 (H3N2) infected in bovine erythrocytes; conditions: Influenza A virus (A/Aichi/2/1968(H3N2))
# Influenza A virus = assay: Inhibition of hemagglutinination in human influenza virus A/PR/8/34 (H1N1) infected in bovine erythrocytes; conditions: A/Puerto Rico/8/1934(H1N1)
# Influenza A virus H3N2 [2] = assay: Inhibition of hemagglutinination in human influenza virus A/Memphis/1/71 (H3N2) infected in bovine erythrocytes; conditions: Influenza A virus (A/Memphis/1/1971(H3N2))
Structure (SMILES),Activity (Influenza A virus H3N2 [1]),Activity (Influenza A virus),Activity (Influenza A virus H3N2 [2])
CC(=O)N[C@H]1[C@H]([C@H](O)[C@H](O)CO)O[C@@](O[C@H]2[C@@H](O)[C@@H](CO)O[C@H](O[C@H]3[C@H](O)[C@@H](O)[C@H](OCCCCCSCCC[Si](CCCSCCCCCO[C@@H]4O[C@H](CO)[C@@H](O[C@H]5O[C@H](CO)[C@H](O)[C@H](O[C@]6(C(=O)O)C[C@H](O)[C@@H](NC(C)=O)[C@H]([C@H](O)[C@H](O)CO)O6)[C@H]5O)[C@H](O)[C@H]4O)(CCCSCCCCCO[C@@H]4O[C@H](CO)[C@@H](O[C@H]5O[C@H](CO)[C@H](O)[C@H](O[C@]6(C(=O)O)C[C@H](O)[C@@H](NC(C)=O)[C@H]([C@H](O)[C@H](O)CO)O6)[C@H]5O)[C@H](O)[C@H]4O)CCC[Si](C)(C)CCC[Si](CCCSCCCCCO[C@@H]4O[C@H](CO)[C@@H](O[C@H]5O[C@H](CO)[C@H](O)[C@H](O[C@]6(C(=O)O)C[C@H](O)[C@@H](NC(C)=O)[C@H]([C@H](O)[C@H](O)CO)O6)[C@H]5O)[C@H](O)[C@H]4O)(CCCSCCCCCO[C@@H]4O[C@H](CO)[C@@H](O[C@H]5O[C@H](CO)[C@H](O)[C@H](O[C@]6(C(=O)O)C[C@H](O)[C@@H](NC(C)=O)[C@H]([C@H](O)[C@H](O)CO)O6)[C@H]5O)[C@H](O)[C@H]4O)CCCSCCCCCO[C@@H]4O[C@H](CO)[C@@H](O[C@H]5O[C@H](CO)[C@H](O)[C@H](O[C@]6(C(=O)O)C[C@H](O)[C@@H](NC(C)=O)[C@H]([C@H](O)[C@H](O)CO)O6)[C@H]5O)[C@H](O)[C@H]4O)O[C@@H]3CO)[C@@H]2O)(C(=O)O)C[C@@H]1O,Active,Active,
CC(=O)N[C@H]1[C@H]([C@H](O)[C@H](O)CO)O[C@@](O[C@H]2[C@@H](O)[C@@H](CO)O[C@H](O[C@H]3[C@H](O)[C@@H](O)[C@H](OCCCCCSCCCCCC(=O)NCCC[Si](CCCNC(=O)CCCCCSCCCCCO[C@@H]4O[C@H](CO)[C@@H](O[C@H]5O[C@H](CO)[C@H](O)[C@H](O[C@]6(C(=O)O)C[C@H](O)[C@@H](NC(C)=O)[C@H]([C@H](O)[C@H](O)CO)O6)[C@H]5O)[C@H](O)[C@H]4O)(CCCNC(=O)CCCCCSCCCCCO[C@@H]4O[C@H](CO)[C@@H](O[C@H]5O[C@H](CO)[C@H](O)[C@H](O[C@]6(C(=O)O)C[C@H](O)[C@@H](NC(C)=O)[C@H]([C@H](O)[C@H](O)CO)O6)[C@H]5O)[C@H](O)[C@H]4O)c4ccccc4)O[C@@H]3CO)[C@@H]2O)(C(=O)O)C[C@@H]1O,Active,Active,
CC(=O)N[C@H]1[C@H]([C@H](O)[C@H](O)CO)O[C@@](O[C@H]2[C@@H](O)[C@@H](CO)O[C@H](O[C@H]3[C@H](O)[C@@H](O)[C@H](OCCCCCSCCCCCC(=O)NCCC[Si](CCCNC(=O)CCCCCSCCCCCO[C@@H]4O[C@H](CO)[C@@H](O[C@H]5O[C@H](CO)[C@H](O)[C@H](O[C@]6(C(=O)O)C[C@H](O)[C@@H](NC(C)=O)[C@H]([C@H](O)[C@H](O)CO)O6)[C@H]5O)[C@H](O)[C@H]4O)(CCCNC(=O)CCCCCSCCCCCO[C@@H]4O[C@H](CO)[C@@H](O[C@H]5O[C@H](CO)[C@H](O)[C@H](O[C@]6(C(=O)O)C[C@H](O)[C@@H](NC(C)=O)[C@H]([C@H](O)[C@H](O)CO)O6)[C@H]5O)[C@H](O)[C@H]4O)CCC[Si](C)(C)CCC[Si](CCCNC(=O)CCCCCSCCCCCO[C@@H]4O[C@H](CO)[C@@H](O[C@H]5O[C@H](CO)[C@H](O)[C@H](O[C@]6(C(=O)O)C[C@H](O)[C@@H](NC(C)=O)[C@H]([C@H](O)[C@H](O)CO)O6)[C@H]5O)[C@H](O)[C@H]4O)(CCCNC(=O)CCCCCSCCCCCO[C@@H]4O[C@H](CO)[C@@H](O[C@H]5O[C@H](CO)[C@H](O)[C@H](O[C@]6(C(=O)O)C[C@H](O)[C@@H](NC(C)=O)[C@H]([C@H](O)[C@H](O)CO)O6)[C@H]5O)[C@H](O)[C@H]4O)CCCNC(=O)CCCCCSCCCCCO[C@@H]4O[C@H](CO)[C@@H](O[C@H]5O[C@H](CO)[C@H](O)[C@H](O[C@]6(C(=O)O)C[C@H](O)[C@@H](NC(C)=O)[C@H]([C@H](O)[C@H](O)CO)O6)[C@H]5O)[C@H](O)[C@H]4O)O[C@@H]3CO)[C@@H]2O)(C(=O)O)C[C@@H]1O,Active,Active,Active
C=CCCCO[C@@H]1O[C@H](CO)[C@@H](O[C@H]2O[C@H](CO)[C@H](O)[C@H](O[C@]3(C(=O)O)C[C@H](O)[C@@H](NC(C)=O)[C@H]([C@H](O)[C@H](O)CO)O3)[C@H]2O)[C@H](O)[C@H]1O,Active,Active,
CC(=O)N[C@H]1[C@H]([C@H](O)[C@H](O)CO)O[C@@](O[C@H]2[C@@H](O)[C@@H](CO)O[C@H](O[C@H]3[C@H](O)[C@@H](O)[C@H](OCCCCCSCCC[Si](CCCSCCCCCO[C@@H]4O[C@H](CO)[C@@H](O[C@H]5O[C@H](CO)[C@H](O)[C@H](O[C@]6(C(=O)O)C[C@H](O)[C@@H](NC(C)=O)[C@H]([C@H](O)[C@H](O)CO)O6)[C@H]5O)[C@H](O)[C@H]4O)(CCCSCCCCCO[C@@H]4O[C@H](CO)[C@@H](O[C@H]5O[C@H](CO)[C@H](O)[C@H](O[C@]6(C(=O)O)C[C@H](O)[C@@H](NC(C)=O)[C@H]([C@H](O)[C@H](O)CO)O6)[C@H]5O)[C@H](O)[C@H]4O)c4ccccc4)O[C@@H]3CO)[C@@H]2O)(C(=O)O)C[C@@H]1O,Active,Active,
CC(=O)N[C@H]1[C@H]([C@H](O)[C@H](O)CO)O[C@@](O[C@H]2[C@@H](O)[C@@H](CO)O[C@H](O[C@H]3[C@H](O)[C@@H](O)[C@H](OCCCCCSCCC[Si](CCCSCCCCCO[C@@H]4O[C@H](CO)[C@@H](O[C@H]5O[C@H](CO)[C@H](O)[C@H](O[C@]6(C(=O)O)C[C@H](O)[C@@H](NC(C)=O)[C@H]([C@H](O)[C@H](O)CO)O6)[C@H]5O)[C@H](O)[C@H]4O)(CCCSCCCCCO[C@@H]4O[C@H](CO)[C@@H](O[C@H]5O[C@H](CO)[C@H](O)[C@H](O[C@]6(C(=O)O)C[C@H](O)[C@@H](NC(C)=O)[C@H]([C@H](O)[C@H](O)CO)O6)[C@H]5O)[C@H](O)[C@H]4O)CCCSCCCCCO[C@@H]4O[C@H](CO)[C@@H](O[C@H]5O[C@H](CO)[C@H](O)[C@H](O[C@]6(C(=O)O)C[C@H](O)[C@@H](NC(C)=O)[C@H]([C@H](O)[C@H](O)CO)O6)[C@H]5O)[C@H](O)[C@H]4O)O[C@@H]3CO)[C@@H]2O)(C(=O)O)C[C@@H]1O,Active,Active,
CC(=O)N[C@H]1[C@H]([C@H](O)[C@H](O)CO)O[C@@](O[C@H]2[C@@H](O)[C@@H](CO)O[C@H](O[C@H]3[C@H](O)[C@@H](O)[C@H](OCCCCCSCCCCCC(=O)NCCC[Si](CCCNC(=O)CCCCCSCCCCCO[C@@H]4O[C@H](CO)[C@@H](O[C@H]5O[C@H](CO)[C@H](O)[C@H](O[C@]6(C(=O)O)C[C@H](O)[C@@H](NC(C)=O)[C@H]([C@H](O)[C@H](O)CO)O6)[C@H]5O)[C@H](O)[C@H]4O)(CCCNC(=O)CCCCCSCCCCCO[C@@H]4O[C@H](CO)[C@@H](O[C@H]5O[C@H](CO)[C@H](O)[C@H](O[C@]6(C(=O)O)C[C@H](O)[C@@H](NC(C)=O)[C@H]([C@H](O)[C@H](O)CO)O6)[C@H]5O)[C@H](O)[C@H]4O)CCCNC(=O)CCCCCSCCCCCO[C@@H]4O[C@H](CO)[C@@H](O[C@H]5O[C@H](CO)[C@H](O)[C@H](O[C@]6(C(=O)O)C[C@H](O)[C@@H](NC(C)=O)[C@H]([C@H](O)[C@H](O)CO)O6)[C@H]5O)[C@H](O)[C@H]4O)O[C@@H]3CO)[C@@H]2O)(C(=O)O)C[C@@H]1O,Active,Active,
